What all share (assay type): functional
The test system of one test is Candida albicans. The experiment in a line: Antifungal activity against Candida albicans after 24 hrs by serial dilution method.
A further test concerns Candida tropicalis. Nature of the test: Antifungal activity against Candida tropicalis after 24 hrs by serial dilution method.
The subject of a further test is Candida parapsilosis. Nature of the test: Antifungal activity against Candida parapsilosis after 24 hrs by serial dilution method. The following applies: Lodderomyces parapsilosis.
The next test concerns Pichia kudriavzevii. Nature of the test: Antifungal activity against Candida krusei after 24 hrs by serial dilution method.
A further test relates to Cryptococcus neoformans. Nature of the test: Antifungal activity against Cryptococcus neoformans after 72 hrs by serial dilution method.
The test system of a further test is Aspergillus fumigatus. Nature of the test: Antifungal activity against Aspergillus fumigatus after 7 days by serial dilution method. The following applies: 168 h.
Another test concerns Trichophyton rubrum. Nature of the test: Antifungal activity against Trichophyton rubrum after 7 days by serial dilution method. As to conditions: 168 h.

These results are taken from ChEMBL document CHEMBL1949505, “Total synthesis and structure-activity relationships of new echinocandin-like antifungal cyclolipohexapeptides” (2012).

Each structure is given as a SMILES string. Bridge positions count the residues as written; N and C are the ends. Square brackets hold non-standard residues; d marks the D form. Peptide text beside a SMILES is read from it. * marks the point of attachment. 2Naphthoyl(6-heptyloxy) = CCCCCCCOc1ccc2cc(C(=O)*)ccc2c1; 2Naphthoyl(6-octyloxy) = CCCCCCCCOc1ccc2cc(C(=O)*)ccc2c1; X2 = CCCCCCCOc1ccc(-c2ccc(-c3ccc(C(=O)*)cc3)cc2)cc1; X1 = CCCOc1ccc(-c2ccc(-c3ccc(C(=O)*)cc3)cc2)cc1; Pro(4S-NH2) = N[C@@H]1CN[C@H](C(=O)O)C1; hTyr = N[C@@H](CCc1ccc(O)cc1)C(=O)O; Orn = NCCC[C@H](N)C(=O)O

What is called MIC80 is an inhibitory concentration at the 80% level, which refers to growth in some studies and to a panel of isolates in others. Higher therefore signals lower susceptibility. Turning to `CCCOc1ccc(-c2ccc(-c3ccc(C(=O)N[C@H]4CCCNC(=O)[C@@H]5C[C@H](N)CN5C(=O)[C@H](CCCN)NC(=O)[C@H](CCc5ccc(O)cc5)NC(=O)[C@@H]5CCCN5C(=O)[C@H](C(C)C)NC4=O)cc3)cc2)cc1.Cc1ccc(S(=O)(=O)O)cc1` (X1-[Orn]VP[hTyr][Orn][Pro(4S-NH2)]; lactam 1-C), the MIC80 against Candida albicans was 0.5 µg/mL; against Candida tropicalis, 8 µg/mL; in the test on Candida parapsilosis it was 4 µg/mL; in the test with Pichia kudriavzevii, 2 µg/mL; against Cryptococcus neoformans, 32 µg/mL; with Aspergillus fumigatus, 0.5 µg/mL. Besides, in the test on Trichophyton rubrum, the MIC80 was 16 µg/mL.

On to `CCCCCCCOc1ccc(-c2ccc(-c3ccc(C(=O)N[C@H]4CCCNC(=O)[C@@H]5C[C@H](N)CN5C(=O)[C@H](CCCCN)NC(=O)[C@H](CCc5ccc(O)cc5)NC(=O)[C@@H]5CCCN5C(=O)[C@H]([C@@H](C)O)NC4=O)cc3)cc2)cc1.Cc1ccc(S(=O)(=O)O)cc1` (X2-[Orn]TP[hTyr]K[Pro(4S-NH2)]; lactam 1-C), for which the MIC80 against Candida albicans amounted to 0.25 µg/mL; in the test with Candida tropicalis, 8 µg/mL; against Candida parapsilosis, 2 µg/mL; against Pichia kudriavzevii it was 1 µg/mL; against Cryptococcus neoformans, 16 µg/mL; against Aspergillus fumigatus, 1 µg/mL. The compound also showed an MIC80 in the test with Trichophyton rubrum of 16 µg/mL.

In the case of `CCCCCCCOc1ccc(-c2ccc(-c3ccc(C(=O)N[C@H]4CCCNC(=O)[C@@H]5C[C@H](N)CN5C(=O)[C@H](CCCN)NC(=O)[C@H](CCc5ccc(O)cc5)NC(=O)[C@@H]5CCCN5C(=O)[C@H]([C@@H](C)O)NC4=O)cc3)cc2)cc1.Cc1ccc(S(=O)(=O)O)cc1` (X2-[Orn]TP[hTyr][Orn][Pro(4S-NH2)]; lactam 1-C), the MIC80 in the test on Candida albicans was found to be 0.25 µg/mL; against Candida tropicalis, 8 µg/mL; against Candida parapsilosis, 2 µg/mL; against Pichia kudriavzevii, 1 µg/mL; in the test on Cryptococcus neoformans, 16 µg/mL; in the test on Aspergillus fumigatus it was 0.5 µg/mL. The same compound yielded an MIC80 in the test with Trichophyton rubrum of 16 µg/mL.

In the case of `CCCCCCCOc1ccc(-c2ccc(-c3ccc(C(=O)N[C@H]4CCCNC(=O)[C@@H]5C[C@H](N)CN5C(=O)[C@H](CCCCN)NC(=O)[C@H](CCc5ccc(O)cc5)NC(=O)[C@@H]5CCCN5C(=O)[C@H](C(C)C)NC4=O)cc3)cc2)cc1.Cc1ccc(S(=O)(=O)O)cc1` (X2-[Orn]VP[hTyr]K[Pro(4S-NH2)]; lactam 1-C), the MIC80 amounted to 1 µg/mL against Candida albicans; 16 µg/mL in the test with Candida tropicalis; 4 µg/mL with Candida parapsilosis; 2 µg/mL in the test on Pichia kudriavzevii; 32 µg/mL against Cryptococcus neoformans; 1 µg/mL in the test on Aspergillus fumigatus. Further, in the test with Trichophyton rubrum, the MIC80 came to 16 µg/mL.

On to `CCCCCCCOc1ccc(-c2ccc(-c3ccc(C(=O)N[C@H]4CCCNC(=O)[C@@H]5C[C@H](N)CN5C(=O)[C@H](CCCN)NC(=O)[C@H](CCc5ccc(O)cc5)NC(=O)[C@@H]5CCCN5C(=O)[C@H](C(C)C)NC4=O)cc3)cc2)cc1.Cc1ccc(S(=O)(=O)O)cc1` (X2-[Orn]VP[hTyr][Orn][Pro(4S-NH2)]; lactam 1-C), for which the MIC80 with Candida albicans is 1 µg/mL; with Candida tropicalis, 16 µg/mL; in the test with Candida parapsilosis, 8 µg/mL; against Pichia kudriavzevii it was 2 µg/mL; with Cryptococcus neoformans, 64 µg/mL; in the test on Aspergillus fumigatus, 1 µg/mL. This compound also gave an MIC80 against Trichophyton rubrum of 32 µg/mL.

Take `CCCCCCCOc1ccc2cc(C(=O)N[C@H]3CCCNC(=O)[C@@H]4C[C@H](N)CN4C(=O)[C@H](CCCN)NC(=O)[C@H](CCc4ccc(O)cc4)NC(=O)[C@@H]4CCCN4C(=O)[C@H]([C@@H](C)O)NC3=O)ccc2c1.Cc1ccc(S(=O)(=O)O)cc1` ({2Naphthoyl(6-heptyloxy)}-[Orn]TP[hTyr][Orn][Pro(4S-NH2)]; lactam 1-C): the MIC80 was determined as 0.25 µg/mL against Candida albicans; 32 µg/mL against Candida tropicalis; 4 µg/mL against Candida parapsilosis; 1 µg/mL against Pichia kudriavzevii; 32 µg/mL in the test on Cryptococcus neoformans; 1 µg/mL in the test with Aspergillus fumigatus. In the test with Trichophyton rubrum, this compound came in with an MIC80 of 32 µg/mL.

For the compound `CCCCCCCOc1ccc2cc(C(=O)N[C@H]3CCCNC(=O)[C@@H]4C[C@H](N)CN4C(=O)[C@H](CCCCN)NC(=O)[C@H](CCc4ccc(O)cc4)NC(=O)[C@@H]4CCCN4C(=O)[C@H](C(C)C)NC3=O)ccc2c1.Cc1ccc(S(=O)(=O)O)cc1` ({2Naphthoyl(6-heptyloxy)}-[Orn]VP[hTyr]K[Pro(4S-NH2)]; lactam 1-C), the MIC80 against Candida albicans amounted to 0.5 µg/mL; in the test on Candida tropicalis, 32 µg/mL; in the test on Candida parapsilosis it was 4 µg/mL; against Pichia kudriavzevii it was 2 µg/mL; in the test on Cryptococcus neoformans, 32 µg/mL; against Aspergillus fumigatus, 1 µg/mL. Besides, in the test on Trichophyton rubrum, the MIC80 is 32 µg/mL.

With `CCCCCCCOc1ccc2cc(C(=O)N[C@H]3CCCNC(=O)[C@@H]4C[C@H](N)CN4C(=O)[C@H](CCCN)NC(=O)[C@H](CCc4ccc(O)cc4)NC(=O)[C@@H]4CCCN4C(=O)[C@H](C(C)C)NC3=O)ccc2c1.Cc1ccc(S(=O)(=O)O)cc1` ({2Naphthoyl(6-heptyloxy)}-[Orn]VP[hTyr][Orn][Pro(4S-NH2)]; lactam 1-C), the MIC80 against Candida albicans came to 1 µg/mL; in the test with Candida tropicalis it was 32 µg/mL; in the test on Candida parapsilosis, 4 µg/mL; against Pichia kudriavzevii, 2 µg/mL; in the test on Cryptococcus neoformans, 32 µg/mL; in the test on Aspergillus fumigatus it was 0.5 µg/mL. The MIC80 against Trichophyton rubrum was found to be 32 µg/mL.

Regarding `CCCCCCCCOc1ccc2cc(C(=O)N[C@H]3CCCNC(=O)[C@@H]4C[C@H](N)CN4C(=O)[C@H](CCCCN)NC(=O)[C@H](CCc4ccc(O)cc4)NC(=O)[C@@H]4CCCN4C(=O)[C@H]([C@@H](C)O)NC3=O)ccc2c1.Cc1ccc(S(=O)(=O)O)cc1` ({2Naphthoyl(6-octyloxy)}-[Orn]TP[hTyr]K[Pro(4S-NH2)]; lactam 1-C), the MIC80 in the test on Candida albicans came to 0.5 µg/mL; with Candida tropicalis it was 32 µg/mL; in the test on Candida parapsilosis, 4 µg/mL; against Pichia kudriavzevii, 1 µg/mL; in the test on Cryptococcus neoformans it was 32 µg/mL; with Aspergillus fumigatus, 1 µg/mL. The same compound had an MIC80 in the test with Trichophyton rubrum of 32 µg/mL.

Turning to `CCCCCCCCOc1ccc2cc(C(=O)N[C@H]3CCCNC(=O)[C@@H]4C[C@H](N)CN4C(=O)[C@H](CCCN)NC(=O)[C@H](CCc4ccc(O)cc4)NC(=O)[C@@H]4CCCN4C(=O)[C@H]([C@@H](C)O)NC3=O)ccc2c1.Cc1ccc(S(=O)(=O)O)cc1` ({2Naphthoyl(6-octyloxy)}-[Orn]TP[hTyr][Orn][Pro(4S-NH2)]; lactam 1-C), the MIC80 in the test with Candida albicans was 0.5 µg/mL; against Candida tropicalis, 4 µg/mL; against Candida parapsilosis, 4 µg/mL; in the test with Pichia kudriavzevii it was 1 µg/mL; in the test with Cryptococcus neoformans it was 32 µg/mL; in the test with Aspergillus fumigatus, 1 µg/mL. For the same compound, the MIC80 against Trichophyton rubrum came out at 32 µg/mL.

Take `CCCCCCCCOc1ccc2cc(C(=O)N[C@H]3CCCNC(=O)[C@@H]4C[C@H](N)CN4C(=O)[C@H](CCCCN)NC(=O)[C@H](CCc4ccc(O)cc4)NC(=O)[C@@H]4CCCN4C(=O)[C@H](C(C)C)NC3=O)ccc2c1.Cc1ccc(S(=O)(=O)O)cc1` ({2Naphthoyl(6-octyloxy)}-[Orn]VP[hTyr]K[Pro(4S-NH2)]; lactam 1-C): the MIC80 turned out to be 1 µg/mL against Candida albicans; 32 µg/mL with Candida tropicalis; 4 µg/mL against Candida parapsilosis; 2 µg/mL against Pichia kudriavzevii; 32 µg/mL in the test with Cryptococcus neoformans; 1 µg/mL against Aspergillus fumigatus. The same compound gave an MIC80 with Trichophyton rubrum of 32 µg/mL.
